Literature values as cited in patent publication US20200206184A1, “PHARMACEUTICAL COMPOSITIONS FOR THE TREATMENT OF DISEASE AND/OR SYMPTOMS IN ARTHRITIS” (priority 2004, published 2020).

Legend:
[1] = test system: PBQ-induced writhing in mice; conditions: ranking among cannabinoids
[2] = test system: collagen induced arthritis model in mice
[3] = test system: patient with Mediterranean fever; conditions: 50 mg of THC

Compound | Inhibition of PBQ-induced writhing ([1]; mice, oral administration) | TNF-α production (TNF-α) | Nitric oxide production (nitric oxide) | Arthritis in collagen induced arthritis model [2] | Reducing analgesia and inflammation [1] | Amount of analgesia that the patient required [3]
C=C(C)[C@@H]1CCC(C)=C[C@H]1c1c(O)cc(CCCCC)cc1O [CBD, cannabidiol] | most effective | inhibition | inhibition | suppress arthritis in a dose dependant manner |  | 
CCCCCc1cc(O)c2c(c1)OC(C)(C)c1ccc(C)cc1-2 [CBN] |  |  |  |  | least effective | 
CCCCCc1cc(O)c2c(c1)OC(C)(C)[C@@H]1CCC(C)=C[C@@H]21 [THC, delta-9-tetrahydrocannabinol] |  |  |  |  | least effective | highly significant reduction
